# Assay results published in the NIST ThermoML archive (doi:10.1021/acs.jced.6b00819).
# Numbers after ± are expanded uncertainties.
# Experiment: wn = mass fraction of the nth substance listed
# Details: 100 kPa, Liquid, Pycnometric method
smiles,measurement,setting,value
N.N.O=S(=O)(O)O [ammonium sulfate] + O,mass density,"313.15 K, w1 = 0.446",1238 ± 2 kg/m3
same,mass density,"353.15 K, w1 = 0.481",1242 ± 2 kg/m3
